Laboratory results as given in US9662351B2, “Plasma and brain pharmacokinetics of previously unexplored lithium salts” (University of South Florida, priority 2014, dated 2017).

How the values were obtained:
[1] = rat
Description: Male Sprague Dawley rats weighing 200-250 grams were dosed via oral gavage with 4 meq. […] Blood and brain were collected and lithium was measured using atomic absorption spectroscopy (AAS).
Male Sprague Dawley rats weighing 200-250 grams were purchased from Harlan (Harlan Sprague Dawley Inc., Indianapolis, Ind.). […] The rats were allowed to acclimate for a period of one week before any experiments are carried out. […] They were allowed free access to food and water throughout the experiment. […] Animals in each treatment group were euthanized at 2, 24, 48, and 72 hours (n=3 per time point per lithium salt) and blood was collected by cardiac puncture and carefully perfused with a pressure controlled pump to maintain microvasculature integrity before removing brain tissue. Blood was centrifuged at 1600×g at room temperature for 10 minutes and plasma was separated. A 500 mL aliquot was diluted 10 fold in a 5% TCA and 10% isopropyl alcohol (IPA) solution, vortexed and allowed to sit for 10 minutes in order to precipitate proteins. These aliquots were centrifuged at 3000×g for 30 minutes and the supernatant was transferred to clean tubes prior to measuring lithium content using atomic absorption spectroscopy (AAS). Brains were rinsed with PBS, weighed, and an equal volume of concentrated HNO3 was added. The brains were heated in this nitric acid solution for 1 hour, allowed to cool to room temperature, then centrifuged at 3000×g for 1 hour. The supernatant was removed and diluted 10 fold in 10% IPA prior to measuring lithium content using AAS (Shimadzu AA-6200). Peak height measurements were carried out referring to values obtained for standards of known concentrations. […] Two tailed t-tests were used to assess the statistical significance at each time point for the pharmacokinetic curves. The criterion for rejection of the null hypothesis was P<0.05.

[2] = rat, same protocol; previously reported [7]; peaks rapidly; cited from earlier work

SMILES	AUC(0-72) ([1]; brain lithium, 0-72 h, oral gavage 4 meq. kg^−1 elemental lithium, mean±SEM)	brain lithium exposure compared with other lithium salts (e.g. lithium lactate) ([1]; brain, oral)	plasma lithium exposure compared with other lithium salts (e.g. lithium lactate) ([1]; plasma, oral)	time to elimination of lithium [2]
O=C([O-])c1ccccc1O.[Li+] [Lithium Salicylate, Lithium salicylate]	153.1 ± 7.66 µg/g	better brain exposure	comparatively lower plasma lithium exposure	
O=C([O-])[O-].[Li+].[Li+] [lithium carbonate]				≤ 48 h
